According to patent US20030232986A1, “Inhibitors of caspases” (Vertex Pharmaceuticals Incorporated, priority 1998, published 2003):
Read-outs that look alike come from different tables or passages of the source. Where a SMILES comes first, the peptide text is derived from it. [ ]: non-standard residue; d: D form. The star is where a group is joined. Tle = CC(C)(C)[C@H](N)C(=O)O; 4Abz = Nc1ccc(C(=O)O)cc1; Bz = O=C(c1ccccc1)*

Tests used:
Caspase-1 = molecular target: T1, Caspase-1 (Homo sapiens, UniProt P29466); assay: Caspase-1 enzyme inhibition (Ki); type: biochemical
T1 sequence (P29466 120-297 limits assumed): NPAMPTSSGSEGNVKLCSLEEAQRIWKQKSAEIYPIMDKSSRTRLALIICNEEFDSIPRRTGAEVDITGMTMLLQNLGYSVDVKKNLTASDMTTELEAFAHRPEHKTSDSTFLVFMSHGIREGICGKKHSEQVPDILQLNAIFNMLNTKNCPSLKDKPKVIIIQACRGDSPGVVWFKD
T1 sequence (P29466 317-404 limits assumed): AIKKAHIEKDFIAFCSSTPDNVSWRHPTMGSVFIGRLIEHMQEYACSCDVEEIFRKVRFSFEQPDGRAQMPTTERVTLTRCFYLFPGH
Procedure, shortened: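 Ki obtained by fitting rate versus inhibitor concentration to the Morrison tight-binding equation for competitive inhibitors, with pNA release read at 405 nm at 37 °C. Substrate Suc-YVAD-pNA (80 μM final) added after 15 min enzyme–inhibitor preincubation in Tris pH 7.5 buffer with DTT and CHAPS.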

[1] = test system: Human whole blood, IL-1β production; assay: Whole blood assay for IL-1β production; type: cell-based; details: LPS-stimulated whole blood, IL-1β by ELISA
Protocol: The whole blood assay is a simple method for measuring the production of IL-1β (or other cytokines) and the activity of potential inhibitors. The complexity of this assay system, with its full complement of lymphoid and inflammatory cell types, spectrum of plasma proteins and red blood cells is an ideal in vitro representation of human in vivo physiologic conditions.
Set incubator or water bath at 30° C. Aliquot 0.25 ml of blood into 1.5 ml eppendorf tubes. Note: be sure to invert the whole blood sample tubes after every two aliquots. Differences in replicates may result if the cells sediment and are not uniformly suspended. Use of a positive displacement pipette will also minimize differences between replicate aliquots.
Prepare drug dilutions in sterile pyrogen-free saline by serial dilution. A dilution series which brackets the apparent Ki for a test compound determined in an ICE inhibition assay is generally used for the primary compound screen. For extremely hydrophobic compounds, prepare compound dilutions in fresh plasma obtained from the same blood donor or in PBS-containing 5% DMSO to enhance solubility.
Add 25 μl test compound dilution or vehicle control and gently mix the sample. Then add 5.0 μl LPS solution (250 ng/ml stocked prepared fresh: 5.0 ng/ml final concentration LPS), and mix again. Incubate the tubes at […] in a water bath for 16-18 hr with occasional mixing. Alternatively, the tubes can be placed in a rotator set at 4 rpm for the same incubation period. This assay should be set up in duplicate or triplicate with the following controls: negative control—no LPS; positive control—no test inhibitor; vehicle control—the highest concentration of DMSO or compound solvent used in the experiment. Additional saline is added to all control tubes to normalize volumes for both control and experimental whole blood test samples.
After the incubation period, whole blood samples are centrifuged for 10 minutes at ^˜2000 rpm in the microfuge, plasma is transferred to a fresh microfuge tube and centrifuged at 1000×g to pellet residual platelets if necessary. Plasma samples may be stored frozen at −70° C. prior to assay for cytokine levels by ELISA.
R & D Systems (614 McKinley Place N.E. Minneapolis, Minn. 55413) Quantikine kits may be used for measurement of IL-1β and TNF-α. The assays are performed according to the manufacture's directions. IL-1β levels of ^˜1-5 ng/ml in positive controls among a range of individuals may be observed. A 1:200 dilution of plasma for all samples is usually sufficient for experiments for ELISA results to fall on the linear range of the ELISA standard curves. It may be necessary to optimize standard dilutions if you observe differences in the whole blood assay. Nerad, J. L. et al., J. Leukocyte Biol., 52, pp. 687-692 (1992).

[2] = test system: Human Peripheral Blood Mononuclear Cells (PBMC), mature IL-1β; assay: PBMC cell assay: IL-1β assay with human peripheral blood mononuclear cells; type: cell-based; details: LPS-stimulated human PBMC, mature IL-1β in supernatant by ELISA
From the text: IL-1β Assay with a Mixed Population of Human Peripheral Blood Mononuclear Cells (PBMC) or Enriched Adherent Mononuclear Cells
Processing of pre-IL-1β by ICE can be measured in cell culture using a variety of cell sources. Human PBMC obtained from healthy donors provides a mixed population of lymphocyte subtypes and mononuclear cells that produce a spectrum of interleukins and cytokines in response to many classes of physiological stimulators. Adherent mononuclear cells from PBMC provides an enriched source of normal monocytes for selective studies of cytokine production by activated cells.
An initial dilution series of test compound in DMSO or ethanol is prepared, with a subsequent dilution into RPMI-10% FBS media (containing 2 mM L-glutamine, 10 mM HEPES, 50 U and 50 ug/ml pen/strep) respectively to yield drugs at 4× the final test concentration containing 0.4% DMSO or 0.4% ethanol. The final concentration of DMSO is 0.1% for all drug dilutions. A concentration titration which brackets the apparent Ki for a test compound determined in an ICE inhibition assay is generally used for the primary compound screen.
Generally 5-6 compound dilutions are tested and the cellular component of the assay is performed in duplicate, with duplicate ELISA determinations on each cell culture supernatant.
Buffy coat cells isolated from one pint human blood (yielding 40-45 ml final volume plasma plus cells) are diluted with media to 80 ml and LeukoPREP separation tubes (Becton Dickinson) are each overlaid with 10 ml of cell suspension. After 15 min centrifugation at 1500-1800×g, the plasma/media layer is aspirated and then the mononuclear cell layer is collected with a Pasteur pipette and transferred to a 15 ml conical centrifuge tube (Corning). Media is added to bring the volume to 15 ml, gently mix the cells by inversion and centrifuge at 300×g for 15 min. The PBMC pellet is resuspended in a small volume of media, the cells are counted and adjusted to 6×10^6 cells/ml.
For the cellular assay, 1.0 ml of the cell suspension is added to each well of a 24-well flat bottom tissue culture plate (Corning), 0.5 ml test compound dilution and 0.5 ml LPS solution (Sigma #L-3012; 20 ng/ml solution prepared in complete RPMI media; final LPS concentration 5 ng/ml). The 0.5 ml additions of test compound and LPS are usually sufficient to mix the contents of the wells. Three control mixtures are run per experiment, with either LPS alone, solvent vehicle control, and/or additional media to adjust the final culture volume to 2.0 ml. The cell cultures are incubated for 16-18 hr at 37° C. in the presence of 5% CO2.
At the end of the incubation period, cells are harvested and transferred to 15 ml conical centrifuge tubes. After centrifugation for 10 min at 200×g, supernatants are harvested and transferred to 1.5 ml Eppendorf tubes. It may be noted that the cell pellet may be utilized for a biochemical evaluation of pre-IL-1β and/or mature IL-1β content in cytosol extracts by Western blotting or ELISA with pre-IL-1β specific antisera.
PBMC are isolated and prepared as described above. Media (1.0 ml) is first added to wells followed by 0.5 ml of the PBMC suspension. After a one hour incubation, plates are gently shaken and nonadherent cells aspirated from each well. Wells are then gently washed three times with 1.0 ml of media and final resuspended in 1.0 ml media. The enrichment for adherent cells generally yields 2.5-3.0×10^5 cells per well. The addition of test compounds, LPS, cell incubation conditions and processing of supernatants proceeds as described above.
Quantikine kits (R&D Systems) may be used for the measurement of mature IL-1β. Assays are performed according to the manufacturer's directions. Mature IL-1β levels of about 1-3 ng/ml in both PBMC and adherent mononuclear cell positive controls are observed. […]

[3] = substrate Suc-YVAD-pNA 80 μM, 37° C., pH 7.5

Structure (SMILES)	Ki (Caspase-1)	Ki (Caspase-1; [3])	IC50 [1]	IC50 [2]
CC(=O)Nc1ccc(C(=O)N[C@H](C(=O)N2CCC[C@H]2C(=O)N[C@H](C=O)CC(=O)O)C(C)C)cc1 [Example 5a] (Ac-[4Abz]VPD-aldehyde)	0.01 to 1 µM	< 0.01 µM	< 2.5 µM	> 2 µM
COc1ccc(C(=O)N[C@H](C(=O)N2CCC[C@H]2C(=O)N[C@H](C=O)CC(=O)O)C(C)C)cc1OCc1ccccc1 [Example 5aa]	< 0.01 µM	< 0.01 µM	< 2.5 µM	0.5 to 1 µM
CC(C)[C@H](NC(=O)Cc1ccccc1OCc1ccccc1)C(=O)N1CCC[C@H]1C(=O)N[C@H](C=O)CC(=O)O [Example 5ab]	0.01 to 1 µM	0.01 to 1 µM	2.5 to 7.5 µM	0.5 to 1 µM
COc1c(C)cc(C(=O)N[C@H](C(=O)N2CCC[C@H]2C(=O)N[C@H](C=O)CC(=O)O)C(C)C)cc1C [Example 5ac]	< 0.01 µM	< 0.01 µM	< 2.5 µM	< 0.5 µM
CC(C)[C@H](NC(=O)c1ccc2ncccc2c1)C(=O)N1CCC[C@H]1C(=O)N[C@H](C=O)CC(=O)O [Example 5ad]	< 0.01 µM	< 0.01 µM	< 2.5 µM	< 0.5 µM
COc1ccc2cc([C@H](C)C(=O)N[C@H](C(=O)N3CCC[C@H]3C(=O)N[C@H](C=O)CC(=O)O)C(C)C)ccc2c1 [Example 5ag]	< 0.01 µM	< 0.01 µM	2.5 to 7.5 µM	0.5 to 1 µM
CC(C)[C@H](NC(=O)c1ccc2c(c1)S(=O)(=O)c1ccccc1C2=O)C(=O)N1CCC[C@H]1C(=O)N[C@H](C=O)CC(=O)O [Example 5ai]	< 0.01 µM	< 0.01 µM	> 7.5 µM	< 0.5 µM
CC(C(=O)N[C@H](C(=O)N1CCC[C@H]1C(=O)N[C@H](C=O)CC(=O)O)C(C)C)c1ccc(C(=O)c2cccs2)cc1 (stereo partly shown) [Example 5aj]	0.01 to 1 µM	0.01 to 1 µM	> 7.5 µM	0.5 to 1 µM
COc1cc(CC(=O)N[C@H](C(=O)N2CCC[C@H]2C(=O)N[C@H](C=O)CC(=O)O)C(C)C)ccc1OCc1ccccc1 [Example 5ak]	0.01 to 1 µM	0.01 to 1 µM	> 7.5 µM	0.5 to 1 µM
CC(C)[C@H](NC(=O)c1cccc(Oc2ccccc2)c1)C(=O)N1CCC[C@H]1C(=O)N[C@H](C=O)CC(=O)O [Example 5ay]	–	< 0.01 µM	2.5 to 7.5 µM	0.5 to 1 µM
Cc1ccc2ccccc2c1C(=O)N[C@H](C(=O)N1CCC[C@H]1C(=O)N[C@H](C=O)CC(=O)O)C(C)C [Example 5g]	–	0.01 to 1 µM	–	1 to 2 µM
CC(C)Cc1ccc(C(C)C(=O)N[C@H](C(=O)N2CCC[C@H]2C(=O)N[C@H](C=O)CC(=O)O)C(C)C)cc1 (stereo partly shown) [Example 5v]	0.01 to 1 µM	0.01 to 1 µM	–	> 2 µM
COc1c(Cl)cc(C(=O)N[C@H](C(=O)N2CCNC[C@H]2C(=O)N[C@H](C=O)CC(=O)O)C(C)C)cc1Cl [Example 15d]	–	0.01 to 1 µM	–	1 to 2 µM
CC(C)[C@H](NC(=O)c1ccc(N)c(Cl)c1)C(=O)N1CCNC[C@H]1C(=O)N[C@H](C=O)CC(=O)O [Example 15e]	–	0.01 to 1 µM	–	> 2 µM
CC(C)[C@H](NC(=O)c1nccc2ccccc12)C(=O)N1CCNC[C@H]1C(=O)N[C@H](C=O)CC(=O)O [Example 15f]	–	0.01 to 1 µM	–	> 2 µM

The next lines start with results.

Ki (Caspase-1)	Ki (Caspase-1; [3])	IC50 [1]	Structure (SMILES)	IC50 [2]
–	0.01 to 1 µM	–	C[C@H](NC(=O)c1nccc2ccccc12)C(=O)N1CCNC[C@H]1C(=O)N[C@H](C=O)CC(=O)O [Example 16a]	< 0.5 µM
–	0.01 to 1 µM	–	CC(C)[C@H](NC(=O)c1nccc2ccccc12)C(=O)N1CCN(C)C[C@H]1C(=O)N[C@H](C=O)CC(=O)O [Example 17b]	1 to 2 µM
–	< 0.01 µM	–	COc1c(Cl)cc(C(=O)N[C@H](C(=O)N2CCN(C(C)=O)C[C@H]2C(=O)N[C@H](C=O)CC(=O)O)C(C)C)cc1Cl [Example 17c]	> 2 µM
–	0.01 to 1 µM	–	CC(=O)N1CCN(C(=O)[C@@H](NC(=O)c2ccc(N)c(Cl)c2)C(C)C)[C@H](C(=O)N[C@H](C=O)CC(=O)O)C1 [Example 17d]	> 2 µM
–	0.01 to 1 µM	–	CC(=O)N1CCN(C(=O)[C@@H](NC(=O)c2nccc3ccccc23)C(C)C)[C@H](C(=O)N[C@H](C=O)CC(=O)O)C1 [Example 17e]	0.5 to 1 µM
–	0.01 to 1 µM	–	CS(=O)(=O)CC[C@H](NC(=O)c1ccc(N)c(Cl)c1)C(=O)N1CCC[C@H]1C(=O)N[C@H](C=O)CC(=O)O [Example 20j]	> 2 µM
–	> 1 µM	–	CC(C)[C@H](N)C(=O)N1CC(c2ccccc2)[C@H]1C(=O)N[C@H](C=O)CC(=O)O (stereo partly shown) [Example 24b]	> 2 µM
–	< 0.01 µM	–	CC(C)[C@H](NC(=O)c1ccccc1)C(=O)N1CC[C@H](C)[C@H]1C(=O)N[C@H](C=O)CC(=O)O [Example 26a]	1 to 2 µM
–	< 0.01 µM	–	Cc1cc(C(=O)N[C@H](C(=O)N2CC[C@H](C)[C@H]2C(=O)N[C@H](C=O)CC(=O)O)C(C)C)cc(C)c1O [Example 26b]	0.5 to 1 µM
–	< 0.01 µM	–	C[C@H](NC(=O)[C@@H](NC(=O)c1ccccc1)C(C)(C)C)C(=O)N[C@H](C=O)CC(=O)O [Example 29m] (Bz-[Tle]-Ala-Asp-aldehyde)	0.5 to 1 µM
